Experimental data taken from US12187723B2 (BRISTOL-MYERS SQUIBB COMPANY, priority 2019, dated 2025).

target: T1, human TLR7 (Homo sapiens, UniProt Q9NYK1); assay: TLR7 inhibition reporter assay (HEK-Blue SEAP); format: cell-based; conditions: HEK-Blue cells overexpressing human TLR7, gardiquimod 7.5 μM, 22 hour incubation
T1 construct: host or cells: HEK-Blue cells
T1 sequence (Q9NYK1 27-1049): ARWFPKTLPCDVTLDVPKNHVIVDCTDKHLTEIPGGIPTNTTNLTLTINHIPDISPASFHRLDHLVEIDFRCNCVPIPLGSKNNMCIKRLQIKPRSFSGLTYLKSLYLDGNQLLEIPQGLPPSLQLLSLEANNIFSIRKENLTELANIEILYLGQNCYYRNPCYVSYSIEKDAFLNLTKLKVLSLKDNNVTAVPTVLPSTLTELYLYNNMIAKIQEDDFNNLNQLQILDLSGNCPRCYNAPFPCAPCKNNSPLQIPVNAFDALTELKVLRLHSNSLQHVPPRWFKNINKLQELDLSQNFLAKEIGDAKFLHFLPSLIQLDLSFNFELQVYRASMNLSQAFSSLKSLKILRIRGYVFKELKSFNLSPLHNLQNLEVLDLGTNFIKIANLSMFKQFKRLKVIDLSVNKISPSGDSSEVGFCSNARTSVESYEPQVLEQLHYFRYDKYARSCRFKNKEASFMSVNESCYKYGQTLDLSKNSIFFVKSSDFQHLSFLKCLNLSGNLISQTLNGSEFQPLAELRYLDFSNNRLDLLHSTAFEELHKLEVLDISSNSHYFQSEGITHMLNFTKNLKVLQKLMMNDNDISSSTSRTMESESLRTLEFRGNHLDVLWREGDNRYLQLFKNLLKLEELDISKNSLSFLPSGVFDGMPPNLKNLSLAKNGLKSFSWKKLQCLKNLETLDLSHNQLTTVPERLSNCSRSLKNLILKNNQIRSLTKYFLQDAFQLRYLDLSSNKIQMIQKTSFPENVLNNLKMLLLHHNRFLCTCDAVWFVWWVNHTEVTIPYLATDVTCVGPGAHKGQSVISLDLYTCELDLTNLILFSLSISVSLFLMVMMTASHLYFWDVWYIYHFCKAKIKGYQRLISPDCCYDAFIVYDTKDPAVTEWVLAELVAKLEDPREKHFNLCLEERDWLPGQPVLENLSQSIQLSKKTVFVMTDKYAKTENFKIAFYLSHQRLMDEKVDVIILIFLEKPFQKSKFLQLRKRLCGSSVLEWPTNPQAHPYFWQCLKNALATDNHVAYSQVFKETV
In short: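 Dose-response testing from 0.05 nM to 50 μM final was done on reporter cells for 22 hours at 37° C. Secreted SEAP was then detected, and inhibition was calculated as percent reduction of the agonist-plus-DMSO signal compared with wells given a known inhibitor.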

IC50 [nM]	SMILES
11.1	Cc1cc2c(cc1-c1cc(C)c3ncnn3c1)[nH]c(=O)n2[C@H]1CC[C@@H](NCCC(F)(F)F)CC1 [Example 31]
1.99	COc1cc(-c2cc3[nH]c(=O)n(C4CCC(N5CCSCC5)CC4)c3cc2C(C)C)cn2ncnc12 (stereo not shown) [Example 250, 6-isopropyl-5-(8-methoxy-[1,2,4]triazolo[1,5-a]pyridin-6-yl)-1-(4-thiomorpholinocyclohexyl)-1,3-dihydro-2H-benzo[d]imidazol-2-one]
3.54	COc1cc(-c2cc3[nH]c(=O)n(C4CCC(N5CCSCC5)CC4)c3cc2C(C)C)cn2ncnc12 (stereo not shown) [Example 251, 6-isopropyl-5-(8-methoxy-[1,2,4]triazolo[1,5-a]pyridin-6-yl)-1-(4-thiomorpholinocyclohexyl)-1,3-dihydro-2H-benzo[d]imidazol-2-one]
6.81	COc1cc(-c2cc3[nH]c(=O)n(C4CCC(N5CC6(COC6)C5)CC4)c3cc2C(C)C)cn2ncnc12 (stereo not shown) [Example 254, 1-(4-(2-oxa-6-azaspiro[3.3]heptan-6-yl)cyclohexyl)-6-isopropyl-5-(8-methoxy-[1,2,4]triazolo[1,5-a]pyridin-6-yl)-1,3-dihydro-2H-benzo[d]imidazol-2-one]
6.97	COCCNC1CCC(n2c(=O)[nH]c3cc(-c4cn5ncnc5c(OC)c4C)c(C(C)C)cc32)CC1 (stereo not shown) [Example 257]
4.25	COCCNC1CCC(n2c(=O)[nH]c3cc(-c4cn5ncnc5c(OC)c4C)c(C(C)C)cc32)CC1 (stereo not shown) [Example 258]
7.18	COc1c(C)c(-c2cc3[nH]c(=O)n(C4CCC(N5CC(OC)C5)CC4)c3cc2C(C)C)cn2ncnc12 (stereo not shown) [Example 265, 6-isopropyl-5-(8-methoxy-7-methyl-[1,2,4]triazolo[1,5-a]pyridin-6-yl)-1-(4-(3-methoxyazetidin-1-yl)cyclohexyl)-1,3-dihydro-2H-benzo[d]imidazol-2-one]
13.4	COc1c(C)c(-c2cc3[nH]c(=O)n(C4CCC(N5CC(OC)C5)CC4)c3cc2C(C)C)cn2ncnc12 (stereo not shown) [Example 266, 6-isopropyl-5-(8-methoxy-7-methyl-[1,2,4]triazolo[1,5-a]pyridin-6-yl)-1-(4-(3-methoxyazetidin-1-yl)cyclohexyl)-1,3-dihydro-2H-benzo[d]imidazol-2-one]
6.06	Cc1c(-c2cc3[nH]c(=O)n(C4CCC(N5CCCOCC5)CC4)c3cc2C(C)C)cn2ncnc2c1C (stereo not shown) [Example 271, 1-(4-(1,4-oxazepan-4-yl)cyclohexyl)-5-(7,8-dimethyl-[1,2,4]triazolo[1,5-a]pyridin-6-yl)-6-isopropyl-1,3-dihydro-2H-benzo[d]imidazol-2-one]
5.37	Cc1c(-c2cc3[nH]c(=O)n(C4CCC(N5CCCOCC5)CC4)c3cc2C(C)C)cn2ncnc2c1C (stereo not shown) [Example 272, 1-(4-(1,4-oxazepan-4-yl)cyclohexyl)-5-(7,8-dimethyl-[1,2,4]triazolo[1,5-a]pyridin-6-yl)-6-isopropyl-1,3-dihydro-2H-benzo[d]imidazol-2-one]
9.22	Cc1c(-c2cc3[nH]c(=O)n(C4CCC(N5CCCC(F)C5)CC4)c3cc2C(C)C)cn2ncnc2c1C (stereo not shown) [Example 273, 5-(7,8-dimethyl-[1,2,4]triazolo[1,5-a]pyridin-6-yl)-1-(4-(3-fluoropiperidin-1-yl)cyclohexyl)-6-isopropyl-1,3-dihydro-2H-benzo[d]imidazol-2-one]
6.78	Cc1c(-c2cc3[nH]c(=O)n(C4CCC(N5CCCC(F)C5)CC4)c3cc2C(C)C)cn2ncnc2c1C (stereo not shown) [Example 274, 5-(7,8-dimethyl-[1,2,4]triazolo[1,5-a]pyridin-6-yl)-1-(4-(3-fluoropiperidin-1-yl)cyclohexyl)-6-isopropyl-1,3-dihydro-2H-benzo[d]imidazol-2-one]

The remaining lines, values behind:

SMILES	IC50 [nM]
Cc1cc2c(cc1-c1cc(C)c3ncnn3c1)[nH]c(=O)n2[C@@H]1CCCN(C2COC2)C1 [Example 18, (R)-6-methyl-5-(8-methyl-[1,2,4]triazolo[1,5-a]pyridin-6-yl)-1-(1-(oxetan-3-yl)piperidin-3-yl)-1,3-dihydro-2H-benzo[d]imidazol-2-one]	409
Cc1cc2c(cc1-c1cc(C)c3ncnn3c1)[nH]c(=O)n2[C@H]1CC[C@@H](N(C)C)CC1 [Example 19, 1-((1s,4s)-4-(dimethylamino)cyclohexyl)-6-methyl-5-(8-methyl-[1,2,4]triazolo[1,5-a]pyridin-6-yl)-1,3-dihydro-2H-benzo[d]imidazol-2-one]	21.3
CCN(CC)[C@H]1CC[C@@H](n2c(=O)[nH]c3cc(-c4cc(C)c5ncnn5c4)c(C)cc32)CC1 [Example 20, 1-((1s,4s)-4-(diethylamino)cyclohexyl)-6-methyl-5-(8-methyl-[1,2,4]triazolo[1,5-a]pyridin-6-yl)-1,3-dihydro-2H-benzo[d]imidazol-2-one]	8.86
CCN[C@H]1CC[C@@H](n2c(=O)[nH]c3cc(-c4cc(C)c5ncnn5c4)c(C)cc32)CC1 [Example 21, 1-((1s,4s)-4-(ethylamino)cyclohexyl)-6-methyl-5-(8-methyl-[1,2,4]triazolo[1,5-a]pyridin-6-yl)-1,3-dihydro-2H-benzo[d]imidazol-2-one]	13.3
Cc1cc2c(cc1-c1cc(C)c3ncnn3c1)[nH]c(=O)n2[C@H]1CC[C@@H](NC(C)C)CC1 [Example 22, 1-((1s,4s)-4-(isopropylamino)cyclohexyl)-6-methyl-5-(8-methyl-[1,2,4]triazolo[1,5-a]pyridin-6-yl)-1,3-dihydro-2H-benzo[d]imidazol-2-one]	4.77
Cc1cc2c(cc1-c1cc(C)c3ncnn3c1)[nH]c(=O)n2[C@H]1CC[C@H](N(C)C)CC1 [Example 23, 1-((1r,4r)-4-(dimethylamino)cyclohexyl)-6-methyl-5-(8-methyl-[1,2,4]triazolo[1,5-a]pyridin-6-yl)-1,3-dihydro-2H-benzo[d]imidazol-2-one]	37.7
CCN[C@H]1CC[C@H](n2c(=O)[nH]c3cc(-c4cc(C)c5ncnn5c4)c(C)cc32)CC1 [Example 24, 1-((1r,4s)-4-(ethylamino)cyclohexyl)-6-methyl-5-(8-methyl-[1,2,4]triazolo[1,5-a]pyridin-6-yl)-1,3-dihydro-2H-benzo[d]imidazol-2-one]	12.4
Cc1cc2c(cc1-c1cc(C)c3ncnn3c1)[nH]c(=O)n2[C@H]1CC[C@H](NC(C)C)CC1 [Example 25, 1-((1r,4s)-4-(isopropylamino)cyclohexyl)-6-methyl-5-(8-methyl-[1,2,4]triazolo[1,5-a]pyridin-6-yl)-1,3-dihydro-2H-benzo[d]imidazol-2-one]	20.2
Cc1cc2c(cc1-c1cc(C)c3ncnn3c1)[nH]c(=O)n2[C@@H]1CCCN(CC(C)(C)C)C1 [Example 26, (R)-6-methyl-5-(8-methyl-[1,2,4]triazolo[1,5-a]pyridin-6-yl)-1-(1-neopentylpiperidin-3-yl)-1,3-dihydro-2H-benzo[d]imidazol-2-one]	235
Cc1cc2c(cc1-c1cc(C)c3ncnn3c1)[nH]c(=O)n2[C@@H]1CCCN(C2CCOCC2)C1 [Example 27, (R)-6-methyl-5-(8-methyl-[1,2,4]triazolo[1,5-a]pyridin-6-yl)-1-(1-(tetrahydro-2H-pyran-4-yl)piperidin-3-yl)-1,3-dihydro-2H-benzo[d]imidazol-2-one]	79.5
CCC(C)N1CCC[C@@H](n2c(=O)[nH]c3cc(-c4cc(C)c5ncnn5c4)c(C)cc32)C1 (stereo partly drawn) [Example 28, 1-((3R)-1-(sec-butyl)piperidin-3-yl)-6-methyl-5-(8-methyl-[1,2,4]triazolo[1,5-a]pyridin-6-yl)-1,3-dihydro-2H-benzo[d]imidazol-2-one]	27.3
Cc1cc2c(cc1-c1cc(C)c3ncnn3c1)[nH]c(=O)n2[C@@H]1CCCN(CCC(F)(F)F)C1 [Example 29, (R)-6-methyl-5-(8-methyl-[1,2,4]triazolo[1,5-a]pyridin-6-yl)-1-(1-(3,3,3-trifluoropropyl)piperidin-3-yl)-1,3-dihydro-2H-benzo[d]imidazol-2-one]	211
Cc1cc2c(cc1-c1cc(C)c3ncnn3c1)[nH]c(=O)n2[C@H]1CC[C@@H](NC2CCOCC2)CC1 [Example 30, 6-methyl-5-(8-methyl-[1,2,4]triazolo[1,5-a]pyridin-6-yl)-1-((1s,4s)-4-((tetrahydro-2H-pyran-4-yl)amino)cyclohexyl)-1,3-dihydro-2H-benzo[d]imidazol-2-one]	8.23
